This assay relates to CBS138 strain (wild strain). In words: Determination of 50% inhibitory concentration of antifungal drug on wild strain (turbidity at OD 600). It is filed as cell-based, Candida glabrata. Conditions: Nakaseomyces glabratus, SD medium, 30° C., 20 hours, turbidity at OD 600 decreased to about 50%.

The structures appear in SMILES notation.

The IC50 is the midpoint of a concentration-inhibition curve. Read a low IC50 as greater potency.

Turning to `OC(Cn1cncn1)(Cn1cncn1)c1ccc(F)cc1F` [fluconazole], 50 µM corresponded to half-maximal inhibition (IC50).

`CN(C/C=C/C#CC(C)(C)C)Cc1cccc2ccccc12` [terbinafine] showed a 50% inhibitory concentration (IC50) of 48 µM.

The values above are taken from patent US20210040533A1, “METHOD FOR IDENTIFYING TARGET GENE OF TEST SUBSTANCE” (DRUG GENOMICS, LTD., priority 2018, published 2021).
